Test results published in patent publication US7862642B2, “Extended-release urea-based granular fertilizer” (Georgia-Pacific Chemicals LLC, priority 2006, dated 2011).
Where two headings read alike, the source gives them in different places.

Test system: Kentucky bluegrass (Poa pratenis L.) turf stand
Settings: visual scale 1-9 (1=no burn or discoloration, 6=moderate, 9=severe), 3 replications; for Mean Phytotoxicity Score DAT 3: 3 days after treatment; for Mean Phytotoxicity Score DAT 5: 5 days after treatment; for Mean Phytotoxicity Score DAT 13: 13 days after treatment; for Mean Phytotoxicity Score DAT 20: 20 days after treatment
Text: SGN is defined as the median particle size (in millimeters), i.e., 50% of the particles (by weight) have a particle size above and below this number. The respective fertilizers were applied to a Kentucky bluegrass (Poa pratenis L.) turf stand at the Hancock Turfgrass Research Center on the campus of Michigan State University.
The experimental design was a randomized complete block design with 3 replications. Fertilizer treatments were applied at rates of 1, 2, and 6 lbs. Nitrogen/1000 ft^2. Treatments were applied with a hand shaker container over a 12 ft^2 area. Irrigation (0.25″ water) was not applied until 3 days after treatment application. Visual ratings were conducted on a scale 1-9 with 1=no burn or discoloration, 6=moderate burn or discoloration, and 9=severe burn or discoloration.

## NC(N)=O [UREA, urea]
1 lb N/1000 ft^2
  Mean Phytotoxicity Score DAT 3: 1
  Mean Phytotoxicity Score DAT 5: 1
  Mean Phytotoxicity Score DAT 13: 1
  Mean Phytotoxicity Score DAT 20: 1
2 lb N/1000 ft^2
  Mean Phytotoxicity Score DAT 3: 2.3
  Mean Phytotoxicity Score DAT 5: 3.7
  Mean Phytotoxicity Score DAT 13: 2.3
  Mean Phytotoxicity Score DAT 20: 1
6 lb N/1000 ft^2
  Mean Phytotoxicity Score DAT 3: 7.7
  Mean Phytotoxicity Score DAT 5: 8.2
  Mean Phytotoxicity Score DAT 13: 7.7
  Mean Phytotoxicity Score DAT 20: 4.0
